Laboratory results published in patent publication US12595269B2, “Morpholine-like monoamine releasers” (Solvonis Therapeutics Ireland Holdings Limited, priority 2022, dated 2026).

Columns and labels:
human DAT = target: T1, human DAT (Homo sapiens, UniProt Q01959); test: DAT uptake scintillation proximity assay, inhibition of [3H]-dopamine uptake in hDAT-CHO cells; type: cell-based; settings: read-out: DAT update pIC50 (converted)
T1 construct: expressed in transfected cells; host or cells: CHO
Description: Overview: Eighty-eight compounds were tested in SERT (serotonin transporter) and DAT (dopamine transporter) uptake assays (completed as scintillation proximity assays, or SPAs, in a recombinant CHO cell line). Fifty-two compounds were tested in release assays for 5-HT and DA release in rat synaptosomes.
Methods and Procedure-Uptake: The potency of the compounds described herein for inhibiting DAT function was measured using an uptake assay in a recombinant CHO cell line stably expressing human DAT (hDAT-CHO). Potency was measured in terms of pIC50 by testing for inhibition of [^3H]-dopamine uptake in hDAT-CHO cells in a 384-well format scintillation proximity assay (SPA).
Briefly, on experiment days, hDAT-CHO cells were detached using Versene and added at a density of approximately 300,000 cells/mL to the SPA Mixture, which contains the following components in Assay Buffer (20 mM HEPES, 145 mM NaCl, 5 mM KCl, 2 mM CaCl2, 1 mM MgCl2, 5.5 mM glucose, 0.01% Pluronic F127, pH 7.3): 0.75 mg/mL SPA Imaging beads (RPNQ0001, PerkinElmer), 10 μM pargyline and 80 nM of [^3H]-dopamine (NET673, PerkinEImer). The SPA Mixture was added 20 μL/well to 384 well plates containing 0.1 μL/well of test compound in neat DMSO (11 points of 1:5 serial dilution, 0.5% DMSO final) or 0.1 μL of DMSO (total uptake) or 0.1 μL of the standard inhibitor indatraline (at 1 μM final concentration, as nonspecific uptake). Plates were sealed with a Top-seal A and read using a Microbeta counter (PerkinEImer) after 45 minutes of incubation at room temperature.
For both tests, the raw experimental data (cpm) were elaborated for the determination of pIC50/IC50 values as % inhibition of specific uptake. Concentration-response curves of MDMA, MDDMA, citalopram and GBR-12909 were used as internal standards in all experiments, and the signal window was monitored in each plate performing Z′ calculations, as described in Zhang et al., J. Biomol. Screen., 1999; 4: 67-73.

[1] = Apparent permeability (Papp AB) in MDCKII cells; type: in vitro ADME, Canine; settings: dog, MDCK; pH 7.4, apical to basolateral, 60 min
Description: Methods and Procedure: This study was conducted in compliance with previously described procedures to assure data integrity and adherence to GLP regulations. The experiments described herein were designed to evaluate the apparent permeability (Papp) of test compounds at pH 7.4. Additionally, the MDCKII-MDR1 cell line (Madin-Darby Canine Kidney clone II cell line heterologously expressing the human P-glycoprotein transporter) and mock cell line MDCKII were used to determine whether a compound acted as a P-gp substrate, in the absence and in the presence of the potent P-gp inhibitor. Test control items (digoxin, metoprolol, and atenolol) and control P-gp inhibitor (GF120918) stock solution were prepared in DMSO. Bidirectional assays (Apical to Basolateral [AB] and Basolateral to Apical [BA]) were run, in both the absence and presence of P-gp inhibitor GF120918 in MDCKII-MDR1 and mock cell line MDCKII, using as transport buffer HBSSH at a pH of 7.4 (n=3).
Compounds were tested at a single concentration (i.e. at 3 or 10 μM) at one time point (i.e. 60 min). Alternative concentrations or time-points may also be investigated. As reference compounds, digoxin (P-gp substrate), atenolol (low permeable compound) and metoprolol (high permeable compound) were included at a single concentration (e.g., 10 or 25 μM) and at single time point (e.g., 60 min). Digoxin transport was evaluated in two directions (apical-to-basolateral [AB] and basolateral-to-apical [BA]) in the absence and presence of GF120918 or in mock cells, MDCKII (n=3). Atenolol and metoprolol were only tested in the AB direction in absence of GF120918 or in mock cells, MDCKII (n=3). The integrity of the cell monolayer was evaluated after the permeability experiment using the paracellular permeability marker Lucifer yellow (LY) in the apical to basolateral direction in each well.
MDCKII or MDCKII-MDRI cells cultivated using DMEM (high glucose, GlutaMAX™ supplemented with pyruvate, 10% FBS HI and Pen/Strep) and seeded onto microporous PET (Polyethylene Terephthalate) membranes in HTS 96-Multiwell Insert plates at density of ˜175,000-245,000 cells/cm^2 (25000-35000 cells/well; 50 μL/well) in DMEM medium and incubated for 3-4 days at 37° C.-5% CO2. Medium was changed a day before the experiment.
Stock solutions of test items were prepared in DMSO at a concentration of 5 or 10 mM and stored at −20° C. until use. The potent P-gp inhibitor, GF120918 (stock solution 10 mM) and the reference controls digoxin, atenolol, metoprolol (stock solutions 3 or 10 mM) were prepared in DMSO and stored at −20° C. until use.
Donor working solutions of test items and reference controls will be prepared at a concentration of 10 or 25 μM, diluting the stock solutions in HBSSH. Receiver working solutions contained transport buffer only. […]
MDCKII and MDCKII-MDR1 cells were preincubated (37° C., 15 to 30 minutes) in receiver working solutions containing transport buffer on apical (A) and basolateral (B) sides. Following pre-incubation, test items and control items (digoxin) transport were measured in two directions (apical to basolateral [AB]) and basolateral to apical [BA]), and these directions were performed in triplicate sets of wells, in both the absence and presence of […] GF120918 or mock MDCKII cells. […] Transport of permeability reference controls, atenolol and metoprolol, were measured in one direction (apical to basolateral [AB]) (n=3). […]

T1 sequence (Q01959 whole entry): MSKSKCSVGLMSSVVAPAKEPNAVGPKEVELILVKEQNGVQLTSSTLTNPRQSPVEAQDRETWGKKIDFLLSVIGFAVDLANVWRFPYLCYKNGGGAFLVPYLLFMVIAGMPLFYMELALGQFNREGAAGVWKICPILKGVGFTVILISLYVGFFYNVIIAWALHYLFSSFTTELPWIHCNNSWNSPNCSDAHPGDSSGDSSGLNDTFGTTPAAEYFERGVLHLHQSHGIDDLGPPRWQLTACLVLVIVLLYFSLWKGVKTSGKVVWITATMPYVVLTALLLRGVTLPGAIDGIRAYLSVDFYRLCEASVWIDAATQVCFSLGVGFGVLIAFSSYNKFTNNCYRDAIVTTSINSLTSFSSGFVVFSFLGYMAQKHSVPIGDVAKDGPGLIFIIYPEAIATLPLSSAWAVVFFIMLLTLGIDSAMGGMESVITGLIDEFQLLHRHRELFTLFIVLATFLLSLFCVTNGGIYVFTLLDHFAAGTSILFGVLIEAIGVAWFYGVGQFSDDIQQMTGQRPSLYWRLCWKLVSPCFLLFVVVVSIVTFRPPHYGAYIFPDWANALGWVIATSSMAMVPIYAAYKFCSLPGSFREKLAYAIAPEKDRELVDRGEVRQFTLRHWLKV

Row | SMILES | IC50 (human DAT) [nM] | Papp A→B at 60 min [1] [×10⁻⁶ cm/s]
1 | Clc1ccc([C@]23CN[C@H](CO2)C3)cc1Cl (single isomer, unassigned) [516A] | 72.4 | 15.8
2 | CNC(C)Cc1ccc2c(c1)OCO2 (stereo not shown) [MDMA, reference compound] | – | 14
3 | Clc1ccc(C23CNC(CO2)C3)cc1Cl (stereo not shown) [522A, 1-(3,4-dichlorophenyl)-2-oxa-5-azabicyclo[2.2.1]heptane] | 63.1 | 9.45
4 | Clc1ccc([C@@]23CN[C@@H](CO2)C3)cc1Cl (single isomer, unassigned) [518A] | 89.1 | 17.3
